The text below walks through data of patent publication US20230065158A1, “OXABICYCLOHEPTANES FOR TREATMENT OF SMALL CELL LUNG CANCER” (Lixte Biotechnology, Inc., priority 2021, published 2023).

Where two headings read alike, the source gives them in different places.

Data set [1] deals with H69 cells. Kind of data set: Glucose uptake assay (glucose oxidase). It counts as cell-based. As to conditions: LB-100 20 μM, compared with control without cells. The source says: FIGS. 4A-4F depict a reactome pathway analysis of PamGene PTKs and STKs after LB-100 treatment of H524 cells and Biolog phenotype MicroArray. […] Table includes 10 carbon sources affected by LB-100 (n=3). […] P<0.001 (***) for control (untreated cells) vs. LB-100. FIG. 4D: Amplex Red Glucose/Oxidase assay kit was used to measure glucose level in cell culture media. […] Glucose concentration detected in initial medium and counted as 100%. Subtracting final medium level of glucose from initial glucose medium concentration yielded % glucose in the medium with cells (n=3). Effect of LB-100 on MET phosphorylation. FIG. 4E: H524 and H69 cells were treated overnight with LB-100 (H524—5 μM and H69—20 μM) following by stimulation with 100 ng/ml HGF in 10 min. Cells were collected and lysed for WB analysis with pMET and total MET antibody. Pan-actin was used as loading control (n=3). FIG. 4F: H524 cell lysates (control, LB-100, carboplatin and combination (LB-100/carboplatin) were analyzed by western blots to check phosphorylation status of MET at Ser985 and Tyr1234/1235. Actin was used as a loading control (n=3). […]
Glucose consumption was determined by using a colorimetric glucose assay (Invitrogen, Carlsbad, Calif.) following the manufacturer's instructions. […] The uptake of glucose was determined compared with initial glucose concentration in the cell culture medium, which was taken as 100%.

Data set [2] concerns extensive-stage small cell lung carcinoma. As to conditions: first study subject.
Description: The Phase Ib study is a single arm study expected to enroll 18 evaluable patients (maximum 30) entered in groups of 3 at escalating doses of LB-100 using the traditional 3+3 design. […] Each cycle is defined as 3 weeks (21 days). Patients will then proceed to maintenance with LB-100 and atezolizumab. Patients who discontinue study therapy without disease progression will continue to be evaluated for tumor response using RECIST v1.1 (Appendix B) guidelines every 6-8 weeks until disease progression, death, or study closure.
Dose Escalation: The Phase I dose-finding will use a traditional 3+3 to determine the maximum tolerated dose (MTD), based on first cycle DLTs. A maximum of 4 dose levels of LB-100 will be explored. […]
Treatment Overview: This Phase Ib study of LB-100 diluted in 50 mL of normal saline for injection will be administered intravenously in the outpatient clinic over 15 minutes in patients with extensive-stage small cell lung cancer. […] All three patients at each dose level will be assessed for evidence of limiting toxicity through their return visit day 21 (and any delay prior to the start of cycle 2) before the decision is made for dose escalation in the next cohort.
Data set [3] relates to H69 cells. The data set can be described thus: Cell Counting Kit-8 cytotoxicity and drug combination, H69. The protocol:
A Mann-Whitney U test was used for comparison between the normal and SCLC samples. FIG. 1B: IHC for PP2A was conducted on TMA tissue sections and images were captured at 4× or 20× using a 3D-Histech PANNORAMIC SCAN whole slide scanner (3D-Histech, Budapest, Hungary). […] TMAs were scored in normal (n=24) and tumor (n=79) cores on a scale from 0 (no staining/no protein expression) to 3+(strong staining/high protein expression). FIG. 1C: Summary bar graph of the average PP2A subunit staining. IHC staining intensity of normal and tumor cores. […] FIG. 1D: In order to compare the expression of PP2A subunits A and C, cell lysates from seven SCLC cell lines and HBEC 3KT (non-malignant cell line) were subjected to western blotting. FIG. 1E: PP2A activity was determined using a serine/threonine phosphatase activity assay (Millipore) after 24 h exposure to cantharidin (10 μM) and LB-100 (5 μM). […] The Cell Counting Kit-8 assay detected cell H524 and H69 cell viability. […] FIGS. 1I-1K: Graphs depict the mean+SEM of percent viability for cells (n=3). Colony formation assays were used to count the ability of H524 (FIGS. 11 and 1J) and H69 (FIGS. 1K and 1L) cells to form colonies. […] Representative images of colonies at 4× are shown under the graph (n=2).*p<0.05; **, p<0.01; *** p<0.001; ****, p<0.0001. Experiments were repeated in triplicate and representative data are shown.

The test system of a further data set is H446 spheroids. Kind of data set: H446 spheroids with drugs and T cells, live imaging. Conditions: without T cells, 48 h. It is filed as cell-based. As to the method: FIGS. 7A-7G depict results of T cells infiltration in H446 spheroids in the presence of LB100 and atezolizumab. FIG. 7A: Schematic of the effect of activated T cells on H446 spheroid degradation. At time point 0, single spheroids in 96 well plate were treated with LB-100, atezolizumab and T cells. Beads mimic in vivo T cell activation by two action signals CD3 and CD28. IncuCyte® Live-Cell Analysis System was used for the spheroidal imaging. Right panel presents spheroidal degeneration after 48 h incubation with LB-100, atezolizumab and activated T cells. FIGS. 7B and 7C: Automated image analysis provides metrics (0 h-μm, […]) and spheroid area (yellow-bright field mask). Column bars present mean values of spheroids at 0h. Representative images in bright field mask. […]
Cytotoxic CD8+ cells were isolated from whole blood, buffy coat of healthy donors following the protocol described in the Methods. […] Spheroid survival was monitored for 48 hours and their diameters were measured from phase contrast images. […]
H446 were generated as described in Materials and Methods (Monitoring of spheroid growth and cytotoxicity with the IncuCyte® Live-Cell Analysis System and IncuCyte® Cytotox reagent) following incubation with T cells and drugs. The effect of LB100 and atezolizumab in the presence of T cells was monitored with IncuCyte 3D Multi-Tumor Spheroid assay.

Another data set deals with H82 cells. Kind of data set: Cell Counting Kit-8 cytotoxicity, H82. As to conditions: read-out: Cytotoxicity IC50; H82; 72 hours.

Description for H82 cells: To determine specific cytotoxicity, we used Cell Counting Kit-8 (Dojindo Molecular Technologies, Rockville, Md.) as previously described (50).

Consider `C[NH+]1CCN(C(=O)C2C(C(=O)O)[C@H]3CC[C@@H]2O3)CC1` (stereo in doubt) [LB-100, 3-[(4-Methylpiperazin-1-yl)carbonyl]-7-oxabicyclo[2.2.1]heptane-2-carboxylic acid], for which the “reduction of consumption of glucose in media” value with H69 cells [1] was determined as 65%. The same compound showed a partial objective response in data set [2] (after the 2nd cycle, LB-100 0.83 mg/m2 days 1 & 3 with carboplatin/etoposide/atezolizumab) of 47%. Besides, the “decrease in measurable tumor” value in data set [2] (following the 4th and last cycle of induction therapy) is given as 58%. The IC50 was approximately 20 µM in the data set on H69 cells [3] (Homo sapiens, NCI-H69, 72 h, read-out: Cytotoxicity IC50, H69, 72 hours) and 22.6 µM with H69 cells [3] (human, 72 h). In addition, in the data set on H446 spheroids, the “effect on spheroids (degeneration), drug alone” value is “moderate effect”.
Take `N.N.O=C([O-])C1(C(=O)[O-])CCC1.[Pt+2]` [Carboplatin, reference compound]: the half-maximal inhibitory concentration (IC50) in the data set on H82 cells was found to be 46.5 µM.
